A short description of series [1]: Plasma hydrolysis of nalbuphine prodrug, dog plasma.
Series [2] is described as follows: Plasma hydrolysis of nalbuphine prodrug, monkey plasma.
A short description of series [3]: Plasma hydrolysis of nalbuphine prodrug, human plasma.
Series [4] can be described thus: Plasma hydrolysis of nalbuphine prodrug, rat plasma.
The nature of series [5]: Oral nalbuphine bioavailability, monkey. The note with it: 4 mg nalbuphine/kg, % dose, two values, 4 mg/kg.
Series [6] can be described thus: Oral 3-hydroxymorphinan bioavailability (nalbuphine), rat. The note with it: plasma, 20 mg/kg.
A short description of series [7]: Oral nalbuphine bioavailability, human.
The nature of series [8]: Oral 3-hydroxymorphinan bioavailability, dog (drug and prodrugs). The following applies: 4 mg/kg.
Series [9] can be described thus: Oral 3-hydroxymorphinan bioavailability, species not printed at the place. The following applies: 10 mg naloxone/kg, species not given.

Molecules are shown by their SMILES. Structures can show the parent of a compound that is named as a salt.

`CC(=O)Oc1ccccc1C(=O)Oc1ccc2c3c1O[C@H]1[C@@H](O)CC[C@@]4(O)[C@@H](C2)N(CC2CCC2)CC[C@]314` [Example 1, Nalbuphine-3-(acetylsalicylate)]: the half-life at 0.28 µM in [1] is 2.8 h; in series [2] it was 0.6 h; in series [3], 6.2 h; in series [4], 0.2 h.

With `Nc1ccccc1C(=O)Oc1ccc2c3c1O[C@H]1[C@@H](O)CC[C@@]4(O)[C@@H](C2)N(CC2CCC2)CC[C@]314` [Example 2, Nalbuphine-3-anthranilate hydrochloride], the half-life at 0.28 µM in series [1] is 14.6 h; in series [2], 3.3 h; in [3], 45 h; in [4] it was 1.5 h.

For `Oc1ccc2c3c1O[C@H]1[C@@H](O)CC[C@@]4(O)[C@@H](C2)N(CC2CCC2)CC[C@]314` [nalbuphine, (-)-17-(Cyclobutylmethyl)-4,5α-epoxymorphinan-3,6α,14-triol], the “Oral nalbuphine bioavailability (F)” value in [5] stood at 1.6%; in series [7] (45 mg tablet or solution, % dose), 14%; in series [8] (oral, 4 mg nalbuphine/kg, % dose, mean ± SE), 5.4 ± 0.9%. Moreover, the bioavailability in series [5] (plasma, po, Oral nalbuphine bioavailability (F)) turned out to be 0.9%; in series [6], 2.7 ± 0.4%; in series [7] (plasma, po, 45 mg), 14%; in [8] (plasma, po) it was 5.4%.

Consider `C=CCN1CC[C@]23c4c5ccc(O)c4O[C@H]2C(=O)CC[C@@]3(O)[C@H]1C5` [naloxone HCl, (-)-17-Allyl-4,5α-epoxy-3,14-dihydroxymorphinan-6-one], for which, in series [9], the “Plasma naloxone concentrations after oral naloxone HCl” value was “close to the assay detection limits and as such were erratic”.

Source of the values: patent US4668685A (priority 1985, dated 1987).
